The experiment in a line: MIC of the examples against various organisms. The class given is cell-based. The conditions noted are these: against at least two of the above organisms (12-strain panel). The method, then: The MIC (μg/ml) of the examples against various organisms was determined: A. baumannii ATCC19606, E. cloacae ATCC23355, E. coli ATCC25922, K. pneumoniae ATCC27736, P. mirabilis ATCC29906, P. aeruginosa ATCC27853, S. maltophilia ATCC13637, S. aureus ATCC43300, S. epidermidis ATCC14990, S. haemolyticus ATCC29970, E. faecalis ATCC29212 and E. faecium ATC19434.
Consider `COc1ccc2ncc(Cl)c(C(O)CN3CCOC(CNC/C=C/c4ccccc4)C3)c2c1` (single isomer, unassigned) [Example 77, 1-(3-Chloro-6-methoxy-quinolin-4-yl)-2-{2-[((E)-3-phenyl-allylamino)-methyl]-morpholin-4-yl}-ethanol], for which the minimal inhibitory concentration (MIC) was at most 2 mg/L. Next, `COc1cnc2ccc(Cl)c(C(O)CN3CCCC(CNCc4ccc5c(c4)NC(=O)CS5)C3)c2n1` (stereo not shown) [Example 96, 6-[({1-[2-(6-Chloro-3-methoxy-quinoxalin-5-yl)-2-hydroxy-ethyl]-piperidin-3-ylmethyl}-amino)-methyl]-4H-benzo[1,4]thiazin-3-one]: at most 2 mg/L; `COc1cnc2cccc(C(O)CN3CCCC(CNCc4ccc5c(n4)NC(=O)CS5)C3)c2c1` (single isomer, unassigned) [Example 42, 6-[({1-[2-Hydroxy-2-(3-methoxy-quinolin-5-yl)-ethyl]-piperidin-3-ylmethyl}-amino)-methyl]-4H-pyrido[3,2-b][1,4]thiazin-3-one]: at most 2 mg/L. Take `COc1cnc2cccc(C(O)CN3CCCC(CNCc4ccc5c(c4)OCCO5)C3)c2n1` (stereo not shown) [Example 92, 2-(3-{[(2,3-Dihydro-benzo[1,4]dioxin-6-ylmethyl)-amino]-methyl}-piperidin-1-yl)-1-(3-methoxy-quinoxalin-5-yl)-ethanol]: the minimum inhibitory concentration (MIC) was at most 2 mg/L.

Regarding `COc1cnc2ccc(Cl)c(C(O)CN3CCCC(CNC/C=C/c4ccccc4)C3)c2n1` (stereo not shown) [Example 99, 1-(6-Chloro-3-methoxy-quinoxalin-5-yl)-2-{3-[((E)-3-phenyl-allylamino)-methyl]-piperidin-1-yl}-ethanol], the minimal inhibitory concentration (MIC) was at most 2 mg/L. `COc1cnc2ccc(Cl)c(C(O)CN3CCCC(CNCc4cc5c(cc4F)SCC(=O)N5)C3)c2n1` (stereo not shown) [Example 98, 6-[({1-[2-(6-Chloro-3-methoxy-quinoxalin-5-yl)-2-hydroxy-ethyl]-piperidin-3-ylmethyl}-amino)-methyl]-7-fluoro-4H-benzo[1,4]thiazin-3-one]: the minimum inhibitory concentration (MIC) was at most 2 mg/L.

For the compound `COc1cnc2cccc(C(O)CN3C4CCC3CC(NCc3ccc5nsnc5c3)C4)c2c1` (stereo not shown) [Example 40, 2-{3-[(Benzo[1,2,5]thiadiazol-5-ylmethyl)-amino]-8-aza-bicyclo[3.2.1]oct-8-yl}-1-(3-methoxy-quinolin-5-yl)-ethanol], the MIC is at most 2 mg/L. With `COc1ccc2ncc(Cl)c(C(O)CN3CCCC(CNCc4ccc5c(c4)OCO5)C3)c2c1` (single isomer, unassigned) [Example 65, 2-(3-{[(Benzo[1,3]dioxol-5-ylmethyl)-amino]-methyl}-piperidin-1-yl)-1-(3-chloro-6-methoxy-quinolin-4-yl)-ethanol], the MIC is at most 2 mg/L. Regarding `COc1ccc2nccc(NC(=O)C3CCCC(CNCc4cc5c(cc4F)SCC(=O)N5)C3)c2n1` (stereo not shown) [Example 24, 3-{[(7-Fluoro-3-oxo-3,4-dihydro-2H-benzo[1,4]thiazin-6-ylmethyl)-amino]-methyl}-cyclohexanecarboxylic acid (6-methoxy-[1,5]-naphthyridin-4-yl)-amide], the MIC was at most 2 mg/L. In the case of `COc1cnc2cccc(C(O)CN3C4CCC3CC(NC/C=C/c3ccccc3)C4)c2n1` (stereo not shown) [Example 86, 1-(3-Methoxy-quinoxalin-5-yl)-2-[3-((E)-3-phenylallylamino)-8-aza-bicyclo[3.2.1]oct-8-yl]-ethanol], the minimum inhibitory concentration (MIC) is at most 2 mg/L.

Take `COc1ccc2nccc(C(O)CN3C4CCC3CC(NC/C=C/c3ccccc3)C4)c2n1` (single isomer, unassigned) [Example 14, 1-(6-Methoxy-[1,5]-naphthyridin-4-yl)-2-[3-((E)-3-phenyl-allylamino)-8-aza-bicyclo[3.2.1]oct-8-yl]-ethanol]: the MIC was at most 2 mg/L. In the case of `COc1ccc2nccc(NC(=O)C3CCCC(CNCc4ccc5c(c4)NC(=O)CS5)C3)c2n1` (stereo not shown) [Example 16, 3-{[(3-Oxo-3,4-dihydro-2H-benzo[1,4]thiazin-6-ylmethyl)-amino]-methyl}-cyclohexanecarboxylic acid (6-methoxy-[1,5]-naphthyridin-4-yl)-amide], the MIC was at most 2 mg/L. As for `COc1cnc2cccc(C(O)CN3CCCC(CNCc4cc5c(cn4)OCCO5)C3)c2c1` (single isomer, unassigned) [Example 43, 2-(3-{[(2,3-Dihydro-[1,4]dioxino[2,3-c]pyridin-7-ylmethyl)-amino]-methyl}-piperidin-1-yl)-1-(3-methoxy-quinolin-5-yl)-ethanol], the figure is at most 2 mg/L; as for `COc1ccc2ncc(Cl)c(C(O)CN3CCOC(CNCc4ccc5c(c4)NC(=O)CO5)C3)c2c1` (single isomer, unassigned) [Example 71, 6-[({4-[2-(3-Chloro-6-methoxy-quinolin-4-yl)-2-hydroxy-ethyl]-morpholin-2-ylmethyl}-amino)-methyl]-4H-benzo[1,4]oxazin-3-one], at most 2 mg/L. As for `COc1ccc2nccc(C(O)CN3CCCC(CNCc4ccc5c(c4)OCCO5)C3)c2n1` (single isomer, unassigned) [Example 3, 2-(3-{[(2,3-Dihydro-benzo[1,4]dioxin-6-ylmethyl)-amino]-methyl}-piperidin-1-yl)-1-(6-methoxy-[1,5]-naphthyridin-4-yl)-ethanol], the MIC is at most 2 mg/L. As for `COc1ccc2nccc(C(O)CN3C4CCC3CC(NCc3ccc5nsnc5c3)C4)c2n1` (single isomer, unassigned) [Example 11, 2-{3-[(Benzo[1,2,5]thiadiazol-5-ylmethyl)-amino]-8-aza-bicyclo[3.2.1]oct-8-yl}-1-(6-methoxy-[1,5]-naphthyridin-4-yl)-ethanol], the figure is at most 2 mg/L. Take `COc1ccc2nccc(NC(=O)C3CCCC(CNCc4ccc5nsnc5c4)C3)c2n1` (stereo not shown) [Example 20, 3-{[(Benzo[1,2,5]thiadiazol-5-ylmethyl)-amino]-methyl}-cyclohexanecarboxylic acid (6-methoxy-[1,5]-naphthyridin-4-yl)-amide]: the MIC was at most 2 mg/L. As for `COc1ccc2ncc(Cl)c(C(O)CN3C4CCC3CC(NCc3ccc5nsnc5c3)C4)c2n1` (stereo not shown) [Example 26, 2-{3-[(Benzo[1,2,5]thiadiazol-5-ylmethyl)-amino]-8-aza-bicyclo[3.2.1]oct-8-yl}-1-(3-chloro-6-methoxy-[1,5]-naphthyridin-4-yl)-ethanol], the MIC is at most 2 mg/L. As for `COc1ccc2ncc(Cl)c(C(O)CN3C4CCC3CC(NCc3cc5c(cc3F)SCC(=O)N5)C4)c2n1` (stereo not shown) [Example 28, 6-({8-[2-(3-Chloro-6-methoxy-[1,5]-naphthyridin-4-yl)-2-hydroxy-ethyl]-8-aza-bicyclo[3.2.1]oct-3-ylamino}-methyl)-7-fluoro-4H-benzo[1,4]thiazin-3-one], the MIC was at most 2 mg/L. On to `COc1cnc2cccc(C(O)CN3C4CCC3CC(NC/C=C/c3ccccn3)C4)c2c1` (single isomer, unassigned) [Example 35, 1-(3-Methoxy-quinolin-5-yl)-2-[3-((E)-3-pyridin-2-yl-allylamino)-8-aza-bicyclo[3.2.1]oct-8-yl]-ethanol], for which the MIC is at most 2 mg/L. As for `COc1ccc2ncc(Cl)c(C(O)CN3C4CCC3CC(NCc3ccc5nsnc5c3)C4)c2c1` (single isomer, unassigned) [Example 58, 2-{3-[(Benzo[1,2,5]thiadiazol-5-ylmethyl)-amino]-8-aza-bicyclo[3.2.1]oct-8-yl}-1-(3-chloro-6-methoxy-quinolin-4-yl)-ethanol], the minimum inhibitory concentration (MIC) was at most 2 mg/L. Regarding `COc1cnc2cccc(C(O)CN3C4CCC3CC(NCc3ccc5nsnc5c3)C4)c2n1` (stereo not shown) [Example 82, 2-{3-[(Benzo[1,2,5]thiadiazol-5-ylmethyl)-amino]-8-aza-bicyclo[3.2.1]oct-8-yl}-1-(3-methoxy-quinoxalin-5-yl)-ethanol], the MIC is at most 2 mg/L. With `COc1cnc2cccc(C(O)CN3C4CCC3CC(NCc3ccc5c(c3)NC(=O)CS5)C4)c2c1` (single isomer, unassigned) [Example 36, 6-({8-[2-Hydroxy-2-(3-methoxy-quinolin-5-yl)-ethyl]-8-aza-bicyclo[3.2.1]oct-3-ylamino}-methyl)-4H-benzo[1,4]thiazin-3-one], the MIC was at most 2 mg/L. In the case of `COc1ccc2ncc(Cl)c(C(O)CN3C4CCC3CC(NCc3cc5c(cn3)OCCO5)C4)c2n1` (stereo not shown) [Example 30, 1-(3-Chloro-6-methoxy-[1,5]-naphthyridin-4-yl)-2-{3-[(2,3-dihydro-[1,4]dioxino[2,3-c]pyridin-7-ylmethyl)-amino]-8-aza-bicyclo[3.2.1]oct-8-yl}-ethanol], the MIC was at most 2 mg/L.

`COc1cnc2cccc(C(O)CN3CCCC(CNCc4ccc5c(c4)NC(=O)CS5)C3)c2n1` (stereo not shown) [Example 91, 6-[({1-[2-Hydroxy-2-(3-methoxy-quinoxalin-5-yl)-ethyl]-piperidin-3-ylmethyl}-amino)-methyl]-4H-benzo[1,4]thiazin-3-one]: the minimum inhibitory concentration (MIC) is at most 2 mg/L. `COc1ccc2ncc(Cl)c(C(O)CN3C4CCC3CC(NC/C=C/c3ccccc3)C4)c2c1` (single isomer, unassigned) [Example 63, 1-(3-Chloro-6-methoxy-quinolin-4-yl)-2-[3-((E)-3-phenyl-allylamino)-8-aza-bicyclo[3.2.1]oct-8-yl]-ethanol]: the minimum inhibitory concentration (MIC) was at most 2 mg/L.

As for `COc1ccc2cccc(NC(=O)C3CCCC(CNCc4ccc5c(c4)NC(=O)CS5)C3)c2n1` (stereo not shown) [Example 112, 3-{[(3-oxo-3,4-dihydro-2H-benzo[1,4]thiazin-6-ylmethyl)-amino]-methyl}-cyclohexanecarboxylic acid (2-methoxy-quinolin-8-yl)-amide], the minimal inhibitory concentration (MIC) was at most 2 mg/L. For the compound `COc1ccc2ncc(Cl)c(C(O)CN3C4CCC3CC(NCc3ccc5c(c3)NC(=O)CO5)C4)c2n1` (stereo not shown) [Example 27, 6-({8-[2-(3-Chloro-6-methoxy-[1,5]-naphthyridin-4-yl)-2-hydroxy-ethyl]-8-aza-bicyclo[3.2.1]oct-3-ylamino}-methyl)-4H-benzo[1,4]oxazin-3-one], the MIC was at most 2 mg/L.

What is called MIC is the smallest concentration in the dilution series that meets the test's criterion for growth inhibition.

The values are drawn from patent publication US20070244103A1, “Novel Compounds Having an Anti-Bacterial Activity” (Morphochem Aktiengesellschaft Fur Kombinatorische Chemie, priority 2004, published 2007).
